Results taken from patent publication US10426784B2, “Imidazodiazepine compound” (Astellas Pharma Inc., priority 2015, dated 2019).

Columns and labels:
[1] = molecular target: T1, human dopamine D1 receptor (Homo sapiens, UniProt P21728); test: Evaluation of positive allosteric modulating action (PAM action): left shift of dopamine dose-response curve (cAMP, TR-FRET); format: cell-based; conditions: human dopamine D1 receptor stably-expressing CHO cells
T1 construct: expressed in transfected cells
Experimental: Buffer solution for assay=αMEM containing 1 mM IBMX
Buffer solution for dilution=αMEM containing 1 mM IBMX and 0.8 mM ascorbic acid
Evaluation of Positive allosteric modulating action (PAM action)
The PAM action of the compound of the present invention was evaluated by the ratio of a left shift of a dopamine dose response curve.
The left shift means that the dopamine dose response curve, in which the logarithm of dose is set to abscissa (X axis) and the response (in this test, cAMP concentration) is set to ordinate (Y axis), is parallely shifted in the negative direction of the X axis by the addition of PAM.
The coding sequence of a human dopamine D1 receptor (Accession No.: NM_000794.3) was amplified by PCR, and was subcloned into a pEF-BOS vector. […]
To measure cAMP, LANCE Ultra cAMP kit (PerkinElmer Inc., LANCE is a registered trademark) was used. […] The plate was incubated at room temperature for 1 hour, and then the fluorescence intensity at 665 nm and 620 nm was measured (excitation wavelength: 320 nm, fluorescence wavelength: 665 nm, 620 nm) by TR-FRET method using a plate reader (2103 Multilabel Plate Reader (registered trademark Envision), PerkinElmer, Inc.). The fluorescence intensity ratio [(fluorescence intensity at 665 nm)/(fluorescence intensity at 620 nm)×10^4] of each well was calculated, and was used for analysis. […]

ddY male mouse = test: Y-maze test (spontaneous alternation behavior, MK-801-induced cognitive impairment); format: in vivo; conditions: single oral administration 1 hour before test, MK-801 0.15 mg/kg i.p.
Experimental: The improvement effect on cognitive impairment of the compound of the present invention was evaluated using Y-maze test that is an experimental system of spontaneous alternation behavior.
As the Y-maze, a maze in which three runways, each having a length of 40 cm, a height of 13 cm, a floor width of 3 cm, and an upper portion width of 10 cm, are attached to each other in a Y shape at an angle of 120°, was used. […]
After the aforementioned mouse was placed at the end of any runway in the Y-maze, the mouse was freely searched for eight minutes. The number of times the mouse has entered the runway was counted, and this counted number of times was set to the total entry number. The number of times the mouse has continuously entered three different runways (for example, when three arms were represented by a, b, and c, respectively, in the case where the order of entry of runways is abccbacab, it was counted by 4) was set to spontaneous alternation behavior number. Spontaneous alternation behavior rate is calculated by Calculation Equation: Spontaneous alternation behavior rate=[spontaneous alternation behavior number/(total entry number−2)]×100. The calculated spontaneous alternation behavior rate was set to an index of spontaneous alternation behavior.
The measured value was represented by average value f standard error for each group. […]

male Long Evans rats = test: Attentional set-shifting task (sub-chronic PCP rats); format: in vivo, rat; conditions: single oral administration after CD
Experimental: Attentional Set-Shifting Task
The compound of the present invention was evaluated by an attentional set-shifting task test.
The attentional set-shifting task test, as in WCST, is a test for measuring flexibility with respect to the change of a rule (clue). The effect on executive function disorder which is one of higher brain dysfunctions can be evaluated by this test.
After allowing the mouse to learn a task that food reward is obtained if there is a clue, in the case where the clue is shifted within a dimension (for example, the clue is changed from a form to another form), both normal animal and pathological animal having abnormality in the prefrontal cortex of the brain (hereinafter, referred to as “pathological animal”) can discriminate clues to obtain food reward. However, after allowing the mouse to learn a task of obtaining food reward by a clue, in the case where the clue is shifted to the outside of a dimension (for example, the clue is changed from a form to aroma), the normal animal can discriminate a clue of food, but the pathological animal cannot discriminate the clue of food. This test puts this behavior to practical use.
The following experiments were carried out with reference to European Journal of Neuroscience, 2005, vol. 21, p. 1070-1076, which was partially modified. […]

T1 sequence (P21728 whole entry): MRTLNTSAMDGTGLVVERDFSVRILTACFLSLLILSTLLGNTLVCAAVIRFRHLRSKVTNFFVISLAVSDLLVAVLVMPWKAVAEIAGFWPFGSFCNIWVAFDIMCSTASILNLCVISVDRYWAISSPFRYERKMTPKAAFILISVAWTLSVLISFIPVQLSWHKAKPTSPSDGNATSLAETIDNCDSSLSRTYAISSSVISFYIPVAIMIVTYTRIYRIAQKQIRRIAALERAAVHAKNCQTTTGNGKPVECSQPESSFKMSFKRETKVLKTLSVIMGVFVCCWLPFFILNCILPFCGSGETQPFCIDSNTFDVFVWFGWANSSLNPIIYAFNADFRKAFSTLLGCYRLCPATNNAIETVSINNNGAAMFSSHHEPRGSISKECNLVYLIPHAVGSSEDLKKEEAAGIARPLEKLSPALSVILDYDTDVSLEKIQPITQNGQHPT

- EC50 2-fold potentiation (test drug concentration by which the EC50 of dopamine is potentiated in 2-fold) [1]: 61 nM
SMILES: O=C(Cn1c(=O)oc2cccc(F)c21)N1CCCn2cc(-c3ccc(C(F)(F)F)cc3)nc2C1 [Ex1, 4-fluoro-3-(2-oxo-2-{2-[4-(trifluoromethyl)phenyl]-6,7-dihydro-5H-imidazo[1,2-a][1,4]diazepin-8(9H)-yl}ethyl)-1,3-benzoxazol-2(3H)-one]
- Dat2: minimum effective dose (significantly improving spontaneous alternation behavior) (ddY male mouse): 0.03 mg/kg
- Dat3: minimum effective dose (improving the executive function disorder, ED task) (male Long Evans rats): 0.003 mg/kg
